System: A-549 (Human lung adenocarcinoma cells)
Assay: MTT inhibition of tumor cell growth, A-549
Assay type: cell-based
Details: Homo sapiens, A549, 48 h
Method in brief: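 48 h MTT growth assay, 37° C, triplicate wells. Seeding 5000-10000 cells/well in 10% FBS medium (DMEM or RPMI1640); primary screen 40 μM, then 5-point gradient. A595 after SDS solubilisation; IC50 by Reed and Muench two-point method.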

Measured: IC50

C=C1C(=O)[C@]23CC[C@H]1CC2[C@@]12CCC[C@@](C)(COC1=O)C2C[C@H]3O (stereo partly drawn) [Compound 1, 15-oxospiramilactone]
3.22 µM: Table 1, 7-hydroxy derivatives of S-3 | Table 2, derivatives having potential Michael reaction acceptor | Table 3, single Michael reaction acceptor, modified lactonic ring | Table 4, derivatives obtained by reduction of the lactonic ring | Table 5, derivatives having double Michael reaction acceptor | Table 7 (first), alkaloid derivatives

Source: patent publication US10112918B2, “15-oxospiramilactone derivatives, preparation method and uses thereof” (Kunming Institute of Botany, The Chinese Academy of Sciences, priority 2013, dated 2018)
